Data as given in US20200115357A1, “LIVER X RECEPTORS (LXR) MODULATORS” (Phenex-FXR GmbH, priority 2017, published 2020).

How the values were obtained:
[1] = molecular target: T1, GST-LXRβ ligand-binding domain (Homo sapiens, UniProt P55055, DUP175-175); test: TR-FRETβ activity assay (LXRβ-LBD / NCoA3 coactivator peptide, prestimulated with 24(S)-25-epoxycholesterol); assay type: biochemical; parameters: key to behavior in FRET assay: ag=agonist; ia=inverse agonist; conditions: for EC50: 1 μM 24(S)-25-epoxycholesterol as prestimulating agonist, read-out: FRETβ activity range (EC50); for behavior in FRET assay: agonist or inverse agonist
T1 construct: amino acids 156-461; NP009052; made in house; host or cells: E. coli
T1 sequence (P55055 with tags, fused parts or gaps DUP175-175): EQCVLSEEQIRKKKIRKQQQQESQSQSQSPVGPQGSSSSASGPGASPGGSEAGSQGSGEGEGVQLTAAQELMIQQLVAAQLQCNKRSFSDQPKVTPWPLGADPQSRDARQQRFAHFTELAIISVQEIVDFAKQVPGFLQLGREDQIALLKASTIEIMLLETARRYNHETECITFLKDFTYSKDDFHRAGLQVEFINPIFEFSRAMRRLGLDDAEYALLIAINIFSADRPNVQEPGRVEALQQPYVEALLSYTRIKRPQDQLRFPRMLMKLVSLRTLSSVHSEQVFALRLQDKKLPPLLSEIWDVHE
In short: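 E. coli-expressed GST-LXRβ LBD (aa 156-461) at 76 nM with biotinylated NCoA3 coactivator peptide (400 nM), in 240 mM KCl, BSA and Triton-X-100. Anti-GST-Tb cryptate/streptavidin-XL665 TR-FRET after 1 h equilibration at 4 °C, excitation 340 nm, emission 615 and 665 nm. Run in triplicate.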

LXRα full length (FL) = molecular target: T2, LXRα full length (FL) (Homo sapiens, UniProt Q13133); test: LXR Gal4 reporter transient transfection assay (M2H), Gal4α FL; assay type: cell-based; conditions: HEK293 cells; read-out: M2H Gal4α FL activity range (EC50)
T2 construct: the full length (FL) proteins of LXRα (amino acids 1-447); NP005684; expressed in transfected cells; host or cells: HEK293
T2 sequence (Q13133 1-447): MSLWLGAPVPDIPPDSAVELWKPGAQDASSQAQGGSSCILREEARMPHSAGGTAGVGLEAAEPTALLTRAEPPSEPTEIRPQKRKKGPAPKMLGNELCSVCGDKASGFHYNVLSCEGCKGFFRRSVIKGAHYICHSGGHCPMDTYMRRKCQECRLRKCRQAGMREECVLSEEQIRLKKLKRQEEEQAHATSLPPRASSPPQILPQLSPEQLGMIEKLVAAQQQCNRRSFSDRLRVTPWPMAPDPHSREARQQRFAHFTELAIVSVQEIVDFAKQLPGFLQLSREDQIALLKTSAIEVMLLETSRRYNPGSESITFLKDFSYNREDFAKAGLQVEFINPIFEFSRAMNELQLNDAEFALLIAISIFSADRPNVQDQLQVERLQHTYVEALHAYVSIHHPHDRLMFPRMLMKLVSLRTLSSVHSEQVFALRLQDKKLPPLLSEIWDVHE
In short: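 Mammalian two-hybrid in HEK293 cells transiently transfected with LXRα/β full-length or LBD fused to NFkB activation domain, plus GAL4-DBD fusions of SRC1 coactivator or NCoR corepressor domains and a GAL4-responsive firefly luciferase reporter. Compounds added 4 h post-transfection (vehicle ≤0.2% DMSO), 16 h incubation; firefly luciferase normalized to Renilla.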

EC50 [1] [nM] | behavior in FRET assay [1] | EC50 (LXRα full length (FL)) [nM] | SMILES
100 to 1000 | ia | < 100 | Cc1cc(C)c(S(=O)(=O)N(Cc2ccc(-c3cccc(C(C)(C)C(=O)O)c3)cc2)Cc2ccc(C(F)(F)F)o2)c(C)c1 [7/5]
1000 to 10000 | ia | 100 to 1000 | Cc1ccc2ccccc2c1S(=O)(=O)N(Cc1ccc(-c2cccc(S(=O)(=O)CC(=O)O)c2)cc1)Cc1cccc(C(F)(F)F)c1 [11/19]
< 100 | ia | < 100 | Cc1ccc2ccccc2c1S(=O)(=O)N(Cc1ccc(-c2cccc(C(C)(C)C(=O)O)c2)cc1)Cc1ccc(C(F)(F)F)o1 [Example 24, 2-Methyl-2-(4′-(((2-methyl-N-((5-(trifluoromethyl)furan-2-yl)methyl)naphthalene)-1-sulfonamido)methyl)-[1,1′-biphenyl]-3-yl)propanoic acid]
< 100 | ia | < 100 | Cc1cc(C)c(S(=O)(=O)N(Cc2ccc(-c3cc(F)c(CO)c(S(C)(=O)=O)c3)cc2)Cc2ccc(C(F)(F)F)o2)c(C)c1 [Example C3/2]

The next lines start with the compound.

SMILES | EC50 [1] [nM] | behavior in FRET assay [1] | EC50 (LXRα full length (FL)) [nM]
Cc1cc(C)c(S(=O)(=O)N(Cc2ccc(-c3cccc(CC(=O)O)c3)cc2)C(C)c2ccc(C(F)(F)F)o2)c(C)c1 (centres unmarked) [2/2] | 100 to 1000 | ia | < 100
Cc1cc(C)c(S(=O)(=O)N(Cc2ccc(-c3cccc(S(=O)(=O)C(C)(C)C(=O)O)c3)cc2)Cc2ccc(C(F)(F)F)o2)c(C)c1 [5/2] | 1000 to 10000 | ia | 100 to 1000
COc1cc(-c2cccc(C(C)(C)C(=O)O)c2)ccc1CN(Cc1ccc(C(F)(F)F)o1)S(=O)(=O)c1c(C)cc(C)cc1C [10/4] | < 100 | ia | < 100
Cc1cc(C)c(S(=O)(=O)N(Cc2ccc(C(F)(F)F)o2)Cc2ccc(-c3cccc(C(C)(C)C(=O)O)c3)cc2Cl)c(C)c1 [10/5] | < 100 | ia | < 100
Cc1cc(C)c(S(=O)(=O)N(Cc2ccc(-c3cccc(CC(=O)O)c3)cc2)Cc2ccc(C(F)(F)F)o2)c(C)c1 [Example 2, 2-(4′-(((2,4,6-Trimethyl-N-((5-(trifluoromethyl)furan-2-yl)methyl)phenyl)sulfonamido)methyl)-[1,1′-biphenyl]-3-yl)acetic acid] | 100 to 1000 | ia | < 100
Cc1cc(C)c(S(=O)(=O)N(Cc2ccc(-c3cccc(S(=O)(=O)CC(=O)O)c3)cc2)Cc2ccc(C(F)(F)F)o2)c(C)c1 [Example 5, 2-((4′-(((2,4,6-Trimethyl-N-((5-(trifluoromethyl)furan-2-yl)methyl)phenyl)sulfonamido)methyl)-[1,1′-biphenyl]-3-yl)sulfonyl)acetic acid] | 1000 to 10000 | – | 1000 to 10000
